Test results from ChEMBL document CHEMBL5053536, “Discovery of Quinazoline-2,4(1H,3H)-dione Derivatives Containing 3-Substituted Piperizines as Potent PARP-1/2 Inhibitors─Design, Synthesis, In Vivo Antitumor Activity, and X-ray Crystal Structure Analysis” (J Med Chem, 2021).

Assay: Cmax in Beagle dog at 20 mg/kg, po measured upto 24 hrs by LC-MS/MS analysis
Type: ADME, organism-based, Canis lupus familiaris
Parameters: time < 24 hrs, dose 20 mg/kg, route po
Conditions: in vivo

SMILES: CC[C@@H]1CN(C(=O)c2cc(Cn3c(=O)[nH]c(=O)c4ccccc43)ccc2F)CCN1CC
- Cmax: 6440 ng/mL
